Results on 27 molecules are retold here after US8445501B2, “Substituted 7-carboxamido-pyrrolo[3,2-d]pyrimidines” (Takeda GmbH, priority 2008, dated 2013).

As usually defined, the IC50 is the concentration that gives 50% inhibition.

This assay addresses T1, human PDE5 (Homo sapiens, UniProt O76074).
T1 construct: from tissue; host or cells: platelets from fresh blood of human donors (lysate, 10,000 g supernatant)
Put plainly: Inhibition of the type 5 phosphodiesterase (PDE5) activity, modified SPA test with platelet lysate. The conditions noted are these: PDE5 from human platelet lysate, 0.5 μM cGMP. The assay is classed as biochemical. The essentials:
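SPA-based cGMP hydrolysis, [3H]cGMP tracer in 0.5 μM cGMP, by sonicated human platelet lysate; motapizone (1 μM) and a PDE2 inhibitor (10 nM) block other PDEs. Reaction 15 min at 37 °C after 5 min preincubation, quenched with beads containing IBMX. IC50 from concentration-effect curves.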
Take `COc1cc(OCC2CC2)c(-c2ncnc3c(C(=O)NC4CCN(C(=O)CO)CC4)c[nH]c23)cc1F` [Example 236, 4-(2-Cyclopropylmethoxy-5-fluoro-4-methoxy-phenyl)-5H-pyrrolo[3,2-d]pyrimidine-7-carboxylic acid [1-(2-hydroxy-ethanoyl)-piperidin-4-yl]amide]: the IC50 is 1660 pM.
Take `CC(=O)N[C@H]1CC[C@H](NC(=O)c2c[nH]c3c(-c4cc(F)ccc4OCC4CC4)ncnc23)CC1` [Example 87, trans-4-(2-Cyclopropylmethoxy-5-fluoro-phenyl)-5H-pyrrolo[3,2-d]pyrimidine-7-carboxylic acid (4-acetylamino-cyclohexyl)-amide]: half-maximal inhibition (IC50) was put at 1120 pM.
`CCOC(=O)N1CC[C@H](NC(=O)c2c[nH]c3c(-c4c(OCC5CC5)ccc5c4OCO5)ncnc23)C1` [Example 22, (S)-3-({1-[4-(5-Cyclopropylmethoxy-benzo[1,3]dioxol-4-yl)-5H-pyrrolo[3,2-d]pyrimidin-7-yl]-methanoyl}-amino)-pyrrolidine-1-carboxylic acid ethyl ester] showed an IC50 of 490 pM.
`Cc1ccc(OCC2CC2)c(-c2ncnc3c(C(=O)N[C@H]4CC[C@H](NC(=O)CO)CC4)c[nH]c23)c1` [Example 243, trans-4-(2-Cyclopropylmethoxy-5-methyl-phenyl)-5H-pyrrolo[3,2-d]pyrimidine-7-carboxylic acid [4-(2-hydroxy-acetylamino)-cyclohexyl]-amide] had an IC50 of 2290 pM.
`CCC(=O)N1CC[C@@H](NC(=O)c2c[nH]c3c(-c4cc(F)c(OC)cc4OCC4CC4)ncnc23)C1` [Example 118, 4-(2-Cyclopropylmethoxy-5-fluoro-4-methoxy-phenyl)-5H-pyrrolo[3,2-d]pyrimidine-7-carboxylic acid ((R)-1-propionyl-pyrrolidin-3-yl)-amide] had an IC50 of 501 pM.
For `COCCOc1ccc2c(c1-c1ncnc3c(C(=O)N[C@H]4CC[C@@H](NC(=O)[C@H](C)O)CC4)c[nH]c13)OCO2` [Example 262, cis-4-[5-(2-Methoxy-ethoxy)-benzo[1,3]dioxol-4-yl]-5H-pyrrolo[3,2-d]pyrimidine-7-carboxylic acid [4-((S)-2-hydroxy-propionylamino)-cyclohexyl]-amide] the value was 9330 pM.
In the case of `CCCCOc1ccc2c(c1-c1ncnc3c(C(=O)N[C@@H]4CCN(C(=O)[C@H](C)O)C4)c[nH]c13)OCO2` [Example 254, 4-(5-Butoxy-benzo[1,3]dioxol-4-yl)-5H-pyrrolo[3,2-d]pyrimidine-7-carboxylic acid [(R)-1-((S)-2-hydroxy-propionyl)-pyrrolidin-3-yl]amide], half-maximal inhibition (IC50) was put at 589 pM.
In turn, `CCC(=O)N1CCC[C@H](NC(=O)c2c[nH]c3c(-c4c(OCC5CC5)ccc5c4OCO5)ncnc23)C1` [Example 44, 4-(5-Cyclopropylmethoxy-benzo[1,3]dioxol-4-yl)-5H-pyrrolo[3,2-d]pyrimidine-7-carboxylic acid ((S)-1-propionyl-piperidin-3-yl)-amide] gave an IC50 of 794 pM.
`COc1ccc(OCC2CC2)c(-c2ncnc3c(C(=O)NC4CCN(C(=O)[C@H](C)O)CC4)c[nH]c23)c1` [Example 212, 4-(2-Cyclopropylmethoxy-5-methoxy-phenyl)-5H-pyrrolo[3,2-d]pyrimidine-7-carboxylic acid [1-((S)-2-hydroxy-propionyl)piperidin-4-yl]-amide] had an IC50 of 1070 pM.
As to `Cc1ccc(OCC2CC2)c(-c2ncnc3c(C(=O)NC4CCN(C(=O)C5(O)CC5)CC4)c[nH]c23)c1` [Example 248, 4-(2-Cyclopropylmethoxy-5-methyl-phenyl)-5H-pyrrolo[3,2-d]pyrimidine-7-carboxylic acid [1-(1-hydroxy-cyclopropanecarbonyl)-piperidin-4-yl]-amide], inhibition was half-maximal at 1100 pM (IC50).
The molecule `O=C(N[C@H]1CC[C@H](C(=O)NC2CC2)CC1)c1c[nH]c2c(-c3c(OCC4CCC4)ccc4c3OCO4)ncnc12` [Example 276, trans-4-(5-Cyclobutylmethoxy-benzo[1,3]dioxol-4-yl)-5H-pyrrolo[3,2-d]pyrimidine-7-carboxylic acid (4-cyclopropylcarbamoyl-cyclohexyl)-amide] had an IC50 of 166 pM.
In the case of `COCCNC(=O)[C@H]1CC[C@H](NC(=O)c2c[nH]c3c(-c4c(OCC5CCC5)ccc5c4OCO5)ncnc23)CC1` [Example 275, trans-4-(5-Cyclobutylmethoxy-benzo[1,3]dioxol-4-yl)-5H-pyrrolo[3,2-d]pyrimidine-7-carboxylic acid [4-(2-methoxy-ethylcarbamoyl)-cyclohexyl]-amide], the IC50 is 347 pM.
`O=C(NC1CCN(C(=O)C2CC2)CC1)c1c[nH]c2c(-c3c(OCC4CCC4)ccc4c3OCO4)ncnc12` [Example 130, 4-(5-Cyclobutylmethoxy-benzo[1,3]dioxol-4-yl)-5H-pyrrolo[3,2-d]pyrimidine-7-carboxylic acid [1-(1-cyclopropyl-methanoyl)-piperidin-4-yl]-amide] had an IC50 of 126 pM.
`COc1ccc(-c2ncnc3c(C(=O)N[C@H]4CC[C@@H](NC(=O)[C@H](C)O)CC4)c[nH]c23)c(OCC2CC2)c1` [Example 203, cis-4-(2-Cyclopropylmethoxy-4-methoxy-phenyl)-5H-pyrrolo[3,2-d]pyrimidine-7-carboxylic acid [4-((S)-2-hydroxy-propionylamino)-cyclohexyl]-amide] gave an IC50 of 389 pM.
The value for `CC(=O)N[C@H]1CC[C@H](NC(=O)c2c[nH]c3c(-c4ccc(F)cc4OCC4CC4)ncnc23)CC1` [Example 78, trans-4-(2-Cyclopropylmethoxy-4-fluoro-phenyl)-5H-pyrrolo[3,2-d]pyrimidine-7-carboxylic acid (4-acetylamino-cyclohexyl)-amide] was 2290 pM.
As for `O=C(NCC1CCN(C(=O)CO)CC1)c1c[nH]c2c(-c3c(OCC4CC4)ccc4c3OCO4)ncnc12` [Example 186, 4-(5-Cyclopropylmethoxy-benzo[1,3]dioxol-4-yl)-5H-pyrrolo[3,2-d]pyrimidine-7-carboxylic acid [1-(2-hydroxy-ethanoyl)-piperidin-4-ylmethyl]-amide], half-maximal inhibition (IC50) was put at 550 pM.
On to `O=C(CO)N[C@H]1CC[C@@H](NC(=O)c2c[nH]c3c(-c4c(OCC5CC5)ccc5c4OCO5)ncnc23)CC1` [Example 174], for which the IC50 is 389 pM.
The molecule `COc1cc(-c2ncnc3c(C(=O)N[C@@H]4CCCN(C(=O)[C@H](C)O)C4)c[nH]c23)c(OCC2CC2)cc1F` [Example 230, 4-(2-Cyclopropylmethoxy-4-fluoro-5-methoxy-phenyl)-5H-pyrrolo[3,2-d]pyrimidine-7-carboxylic acid [(R)-1-((S)-2-hydroxy-propionyl)-piperidin-3-yl]-amide] had an IC50 of 240 pM.
For `COc1ccc(-c2ncnc3c(C(=O)N[C@H]4CC[C@H](NC(=O)[C@H](C)O)CC4)c[nH]c23)c(OCC2CC2)c1` [Example 200, trans-4-(2-Cyclopropylmethoxy-4-methoxy-phenyl)-5H-pyrrolo[3,2-d]pyrimidine-7-carboxylic acid [4-((S)-2-hydroxy-propionylamino)-cyclohexyl]-amide], the IC50 is 479 pM.
For `COc1cc(-c2ncnc3c(C(=O)NC4CCN(C(C)=O)CC4)c[nH]c23)c(OCC2CC2)cc1F` [Example 99, 4-(2-Cyclopropylmethoxy-4-fluoro-5-methoxy-phenyl)-5H-pyrrolo[3,2-d]pyrimidine-7-carboxylic acid (1-acetyl-piperidin-4-yl)-amide] the value was 178 pM; for `CC(=O)N1CCC(NC(=O)c2c[nH]c3c(-c4c(OCC5CCC5)ccc5c4OCO5)ncnc23)CC1` [Example 129, 4-(5-Cyclobutylmethoxy-benzo[1,3]dioxol-4-yl)-5H-pyrrolo[3,2-d]pyrimidine-7-carboxylic acid (1-acetyl-piperidin-4-yl)-amide], 389 pM; for `O=C(N[C@H]1CCN(C(=O)C2(O)CC2)C1)c1c[nH]c2c(-c3c(OCC4CC4)ccc4c3OCO4)ncnc12` [Example 185, 4-(5-Cyclopropylmethoxy-benzo[1,3]dioxol-4-yl)-5H-pyrrolo[3,2-d]pyrimidine-7-carboxylic acid {(S)-1-[1-(1-hydroxy-cyclopropyl)-methanoyl]-pyrrolidin-3-yl}-amide], 2040 pM.
`O=C(CO)N[C@H]1CC[C@H](NC(=O)c2c[nH]c3c(-c4ccc(F)cc4OCC4CC4)ncnc23)CC1` [Example 217, trans-4-(2-Cyclopropylmethoxy-4-fluoro-phenyl)-5H-pyrrolo[3,2-d]pyrimidine-7-carboxylic acid [4-(2-hydroxy-acetylamino)-cyclohexyl]-amide] showed an IC50 of 2240 pM.
Regarding `COCCOc1ccc2c(c1-c1ncnc3c(C(=O)NC4CCN(C(=O)C5CC5)CC4)c[nH]c13)OCO2` [Example 169, 4-[5-(2-Methoxy-ethoxy)-benzo[1,3]dioxol-4-yl]-5H-pyrrolo[3,2-d]pyrimidine-7-carboxylic acid (1-cyclopropanecarbonyl-piperidin-4-yl)-amide], the IC50 was 1740 pM.
Consider `COc1ccc(OCC2CC2)c(-c2ncnc3c(C(=O)N[C@H]4CC[C@@H](NC(C)=O)CC4)c[nH]c23)c1` [Example 67, cis-4-(2-Cyclopropylmethoxy-5-methoxy-phenyl)-5H-pyrrolo[3,2-d]pyrimidine-7-carboxylic acid (4-acetylamino-cyclohexyl)-amide], for which the IC50 is 1380 pM.
In turn, `COCC(=O)N1CCOC(CNC(=O)c2c[nH]c3c(-c4c(OCC5CC5)ccc5c4OCO5)ncnc23)C1` (stereo not drawn) [Example 37, 4-(5-Cyclopropylmethoxy-benzo[1,3]dioxol-4-yl)-5H-pyrrolo[3,2-d]pyrimidine-7-carboxylic acid [4-(2-methoxy-acetyl)morpholin-2-ylmethyl]-amide] had an IC50 of 912 pM.
With `COc1cc(-c2ncnc3c(C(=O)N[C@@H]4CCN(C(=O)[C@H](C)O)C4)c[nH]c23)c(OCC2CC2)cc1F` [Example 232, 4-(2-Cyclopropylmethoxy-4-fluoro-5-methoxy-phenyl)-5H-pyrrolo[3,2-d]pyrimidine-7-carboxylic acid [(R)-1-((S)-2-hydroxy-propionyl)-pyrrolidin-3-yl]amide], the IC50 was 355 pM.
